Results from patent US20220264878A1, “HERBICIDAL COMPOSITION CONTAINING R-TYPE PYRIDYLOXY CARBOXYLIC ACID DERIVATIVE AND USE THEREOF” (Qingdao Kingagroot Chemical Compound Co., Ltd., priority 2019, published 2022).
Read-outs that look alike come from different tables or passages of the source.

What was measured:
Assay in all cases: Post-emergence foliage spray, pot culture, fresh weight inhibition (Tables 1-48, 51-98, 101-148; 24 days)
Assay type in all cases: in vivo
Echinochloa caudate = details: Echinochloa, 576 h, read-out: Control effect (%) of B applied alone in corresponding dose
Outline: (§1)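 Pot-grown weeds were thinned to 15 per pot (45 per treatment) and sprayed on foliage at the 5–6-leaf stage for grasses or the 6–7-leaf stage for broadleaves. Agents were dissolved in acetone with 0.1% Tween-80 and applied at 450 kg/ha spray volume and 0.3 MPa. Plants were then kept in a greenhouse. Above-ground fresh weight of survivors, with dead plants counted as zero, gave inhibition versus a solvent/emulsifier blank.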

[1] = tested on: Echinochloa crusgalli var. zelayensis; details: Echinochloa crus-galli, 576 h, read-out: Control effect (%) of B applied alone in corresponding dose; for pest or weed control at 30 g/ha: B 30 g a.i./ha
Outline: as §1

Echinochloa oryzoides = details: Echinochloa oryzoides, 576 h, read-out: Control effect (%) of B applied alone in corresponding dose; for pest or weed control at 30 g/ha: 30 g a.i./ha
Outline: as §1

[2] = foliar, B 7.5 g a.i./ha, foliage spray, 24 days
[3] = foliar, B 15 g a.i./ha, foliage spray, 24 days
[4] = foliar, B 3.75 g a.i./ha, foliage spray, 24 days
[5] = foliar, B 1.875 g a.i./ha, foliage spray, 24 days

Work on `CCc1cnc(C2=NC(C)(C(C)C)C(=O)N2)c(C(=O)O)c1` (stereo not drawn) [imazethapyr] yielded a pest or weed control at 7.5 g/ha (Echinochloa caudate; imazethapyr 7.5 g a.i./ha) of 4.2%, a pest or weed control at 15 g/ha (Echinochloa caudate; imazethapyr 15 g a.i./ha) of 18.1% and a pest or weed control at 30 g/ha (Echinochloa caudate; imazethapyr 30 g a.i./ha) of 34.8%. It also gave a pest or weed control at 60 g/ha (Echinochloa caudate; imazethapyr 60 g a.i./ha) of 55.6%, a pest or weed control at 7.5 g/ha [1, 2] of 3.2% and a pest or weed control at 15 g/ha [1, 3] of 19.8%. It also gave a pest or weed control at 30 g/ha ([1]; foliar, foliage spray, 24 days) of 31.2%, a pest or weed control at 60 g/ha ([1]; foliar, B 60 g a.i./ha, foliage spray, 24 days) of 59.2% and a pest or weed control at 7.5 g/ha (Echinochloa oryzoides; Table 107, 7.5 g a.i./ha) of 6.7%. For the same compound, the pest or weed control at 15 g/ha (Echinochloa oryzoides; Table 107, 15 g a.i./ha) was 17.8%, the pest or weed control at 30 g/ha (Echinochloa oryzoides; Table 107) was 34.6% and the pest or weed control at 60 g/ha (Echinochloa oryzoides; Table 107, 60 g a.i./ha) was 58.2%.

Compound `COc1cc(OC)nc(NC(=O)NS(=O)(=O)c2ncccc2C(=O)N(C)C)n1` [nicosulfuron] has a pest or weed control at 3.75 g/ha (Echinochloa caudate; nicosulfuron 3.75 g a.i./ha) of 3.8%, a pest or weed control at 7.5 g/ha (Echinochloa caudate; nicosulfuron 7.5 g a.i./ha) of 14.3% and a pest or weed control at 15 g/ha (Echinochloa caudate; nicosulfuron 15 g a.i./ha) of 40.2%. For the same compound, the pest or weed control at 30 g/ha (Echinochloa caudate; nicosulfuron 30 g a.i./ha) was 58.5%, the pest or weed control at 3.75 g/ha [1, 4] was 7.3% and the pest or weed control at 7.5 g/ha [1, 2] was 15.4%. For the same compound, the pest or weed control at 15 g/ha [1, 3] was 39.3%, the pest or weed control at 30 g/ha ([1]; foliar, foliage spray, 24 days) was 58.7% and the pest or weed control at 3.75 g/ha (Echinochloa oryzoides; Table 104, 3.75 g a.i./ha) was 9.9%. It also gave a pest or weed control at 7.5 g/ha (Echinochloa oryzoides; Table 104, 7.5 g a.i./ha) of 18.2%, a pest or weed control at 15 g/ha (Echinochloa oryzoides; Table 104, 15 g a.i./ha) of 40.5% and a pest or weed control at 30 g/ha (Echinochloa oryzoides; Table 104) of 62.4%.

In the case of `COc1cnc(OC)n2nc(NS(=O)(=O)c3c(OCC(F)F)cccc3C(F)(F)F)nc12` [penoxsulam], the pest or weed control at 1.875 g/ha (Echinochloa caudate; penoxsulam 1.875 g a.i./ha) is reported as 3.8%, the pest or weed control at 3.75 g/ha (Echinochloa caudate; penoxsulam 3.75 g a.i./ha) is reported as 15.6% and the pest or weed control at 7.5 g/ha (Echinochloa caudate; penoxsulam 7.5 g a.i./ha) is reported as 46.5%. It also gave a pest or weed control at 15 g/ha (Echinochloa caudate; penoxsulam 15 g a.i./ha) of 69.4%, a pest or weed control at 1.875 g/ha [1, 5] of 2.4% and a pest or weed control at 3.75 g/ha [1, 4] of 10.9%. It also gave a pest or weed control at 7.5 g/ha [1, 2] of 48.8%, a pest or weed control at 15 g/ha [1, 3] of 70.1% and a pest or weed control at 1.875 g/ha (Echinochloa oryzoides; Table 101, 1.875 g a.i./ha) of 4.7%. For the same compound, the pest or weed control at 3.75 g/ha (Echinochloa oryzoides; Table 101, 3.75 g a.i./ha) was 13.8%, the pest or weed control at 7.5 g/ha (Echinochloa oryzoides; Table 101, 7.5 g a.i./ha) was 47.9% and the pest or weed control at 15 g/ha (Echinochloa oryzoides; Table 101, 15 g a.i./ha) was 68.4%.

`CCS(=O)(=O)c1cccnc1S(=O)(=O)NC(=O)Nc1nc(OC)cc(OC)n1` [rimsulfuron] gave a pest or weed control at 1.875 g/ha (Echinochloa caudate; rimsulfuron 1.875 g a.i./ha) of 5.5%, a pest or weed control at 3.75 g/ha (Echinochloa caudate; rimsulfuron 3.75 g a.i./ha) of 25.3% and a pest or weed control at 7.5 g/ha (Echinochloa caudate; rimsulfuron 7.5 g a.i./ha) of 37.9%. For the same compound, the pest or weed control at 15 g/ha (Echinochloa caudate; rimsulfuron 15 g a.i./ha) was 65.8%, the pest or weed control at 1.875 g/ha [1, 5] was 7.7% and the pest or weed control at 3.75 g/ha [1, 4] was 25.5%. It also gave a pest or weed control at 7.5 g/ha [1, 2] of 39.7%, a pest or weed control at 15 g/ha [1, 3] of 67.7% and a pest or weed control at 1.875 g/ha (Echinochloa oryzoides; Table 106, 1.875 g a.i./ha) of 10.3%. The pest or weed control at 3.75 g/ha (Echinochloa oryzoides; Table 106, 3.75 g a.i./ha) was 26.9%, the pest or weed control at 7.5 g/ha (Echinochloa oryzoides; Table 106, 7.5 g a.i./ha) was 43.7% and the pest or weed control at 15 g/ha (Echinochloa oryzoides; Table 106, 15 g a.i./ha) was 69.6%.

With `Cc1nn(-c2cc(NS(C)(=O)=O)c(Cl)cc2Cl)c(=O)n1C(F)F` [sulfentrazone] the pest or weed control at 1.875 g/ha (Echinochloa caudate; Table 97, 1.875 g a.i./ha) was 6.6%, the pest or weed control at 3.75 g/ha (Echinochloa caudate; Table 97, 3.75 g a.i./ha) was 10.8% and the pest or weed control at 7.5 g/ha (Echinochloa caudate; Table 97, 7.5 g a.i./ha) was 24.5%. For the same compound, the pest or weed control at 15 g/ha (Echinochloa caudate; Table 97, 15 g a.i./ha) was 52.6%, the pest or weed control at 1.875 g/ha ([1]; sulfentrazone 1.875 g a.i./ha) was 2.8% and the pest or weed control at 3.75 g/ha ([1]; sulfentrazone 3.75 g a.i./ha) was 15.4%. It also gave a pest or weed control at 7.5 g/ha ([1]; sulfentrazone 7.5 g a.i./ha) of 26.9%, a pest or weed control at 15 g/ha ([1]; sulfentrazone 15 g a.i./ha) of 54.1% and a pest or weed control at 1.875 g/ha (Echinochloa oryzoides; B 1.875 g a.i./ha) of 5.8%. The pest or weed control at 3.75 g/ha (Echinochloa oryzoides; B 3.75 g a.i./ha) was 18.1%, the pest or weed control at 7.5 g/ha (Echinochloa oryzoides; B 7.5 g a.i./ha) was 29.7% and the pest or weed control at 15 g/ha (Echinochloa oryzoides; B 15 g a.i./ha) was 56.1%.
